The record followed here is publication PMC4026528 (PLoS ONE, 2014).

SMILES strings stand for the structures. Bounds are passed on as bounds.

What is called IC50 is the concentration that gives 50% inhibition. A higher IC50 goes with weaker potency.

Data set [1] deals with U2OS (osteosarcoma) cells. Put plainly: Soft agar assay (anchorage-independent growth), U2OS. The class given is cell-based, human. The procedure:
(§1) Soft agar assay and analysis was carried out as previously described. For scratch assay, confluent monolayer of U2OS and HT-1080 cells were subjected to scratch using a sterile pipette tip. Wounded monolayers were washed to remove debris and incubated with SEN461 at different concentrations for 20 hours. After the incubation period, images were taken under an Axiovert 200M (Zeiss) microscope equipped with a CCD camera, and the gap width was measured using MetaMorph 6.3 software (Universal Imaging Corp.) to calculate the area covered by cells (pixels unit). The tube formation assay was performed using growth factor-reduced Matrigel from BD (BD Biosciences; San Jose, CA, USA). Matrigel was thawed overnight at 4°C and was diluted (1∶1) with phenol red-free DMEM without serum. 100 µl of the diluted matrigel was used to coat the wells of a 96 well plate and was allowed to polymerize for 2 hours at 37°C. After equilibrating the gel with the complete growth medium, 15×10^3 cells were seeded in each well and incubated for 20 hours. The tube formation was monitored under a phase contrast microscope (Axiovert 200, Zeiss) and imaged using MetaMorph system (Universal Imaging Corp).

For another data set, the system named is 143B osteosarcoma cells. Put plainly: Soft agar assay (anchorage-independent growth), 143B. Format: cell-based, human. The conditions noted are these: lack of sensitivity up to highest concentration. The procedure:
as §1

Data set [2] deals with Wnt target gene mRNA in HT-1080 cells. Kind of data set: Quantitative RT-PCR of Wnt target genes in HT-1080. The class given is cell-based, human. The settings on record: HT-1080, overnight, 10 µmol/L. The protocol: RNA extraction and quantitative RT-PCR (qPCR) expression analysis was performed as described previously. Gene expression analysis was performed using the human housekeeping gene RPL13A. Primers for the hAXIN2, hCDC25A, hc-MYC, hFZD4, hDVL2, hCSNK1G and hVEGF-A were the following: Fw: 5′-CAAGGGCCAGGTCACCAA-3′ Rv: 5′-CCCCCAACCCATCTTCGT-3′; Fw: 5′-[…]-3′ Rv: 5′-[…]-3′; Fw: 5′-GGCTCCTGGCAAAAGGTCA-3′ Rv: 5′-[…]-3′; Fw: 5′-[…]-3′ Rv: 5′-[…]-3′; Fw: 5′-[…]-3′ Rv: 5′-GTCTCCCCGCTCATTGCTC-3′; Fw: 5′-[…]-3′ Rv: 5′-[…]-3′; Fw: 5′-[…]-3′ Rv: 5′-[…]-3′.

Data set [3] relates to Axin1 and β-catenin in 143B osteosarcoma cells. Put plainly: Western blotting in 143B. Format: cell-based, human. In general terms: In western blotting, separated proteins are transferred to a membrane and probed.
The next data set relates to U2OS cells. Put plainly: Scratch assay (motility), U2OS. Format: cell-based, human. The conditions noted are these: 20 hours. The procedure: as §1
The subject of the next data set is HT-1080 cells. Kind of data set: Scratch assay (motility), HT-1080. The class given is cell-based, human. The settings on record: HT-1080, 20 hours. The protocol: as §1
In the next data set the test system is HUVEC cells. Kind of data set: Tube formation assay, HUVEC. The class given is cell-based. The conditions noted are these: data not shown. The procedure:
as §1

Data set [4] deals with Myc transcriptional activation in HEK293 cells. Put plainly: Nucleolin promoter (pNucL14) luciferase reporter, HEK293. Format: cell-based. The conditions noted are these: HEK293, pNucL14 ± FLAG-c-Myc. The source says: (§2) The generation of TCF-Luciferase and TA-Renilla reporter plasmids as well as IC50 determination and calculation was reported previously. Human AXIN1 and WNT3A cDNAs were purchased from Origene as “transfection ready” plasmids. Dominant negative TCF4 cDNA was purchased from Upstate. Luciferase reporter of the nucleolin promoter (pNucL14) and FLAG-c-Myc expressing vector were from B. Amati. Luciferase reporter of the Hes5 promoter and Notch1-IC expressing vector were from I. Screpanti. Lentiviral vectors for inducible dominant negative TCF4 (rLV-EF1-tTS, rLV-EF1-rtTA and rLV-TRE-CMV-HA-TCF4DN) were purchased from Vectalys.
(§3) Transfections were carried out using Lipofectamine 2000 (Invitrogen) according to the manufacturer’s instructions. Lentiviral expression of TCF-Luc, TA-Renilla, and the inducible dominant negative TCF4, were carried out following Vectalys instructions. For reporter assays, luciferase activities were performed as described previously.
Background: Reporter assays use an easily measured gene product as a stand-in for the process of interest.

Data set [5] concerns Myc transcriptional activation in HT-1080 cells. Kind of data set: Nucleolin promoter (pNucL14) luciferase reporter, HT-1080. The class given is cell-based, human. The settings on record: HT-1080, pNucL14 ± FLAG-c-Myc.
Source text: as §2, §3

Another data set relates to HT-1080 xenograft tumor. Put plainly: HT-1080 xenograft tumor growth. Format: in vivo, female Crl:CD-1 nude mice. The conditions noted are these: 30 mg/kg twice a day PO, seven days. The protocol:
(§4) Female athymic nude mice (6 weeks old, Crl:CD-1 nude mice) were obtained from Charles River Italia (Calco, Italy). HT-1080 cells (6×10^∧6 cells) were resuspended in 200 µl of PBS 1X and injected subcutaneously in the right flank of the mice. Body weight and tumor measurements (using a digital caliper) were performed twice a week. Randomization was performed on day 12 after cell injection by comparing tumor mass and treatments started on day 13 when tumors reached a median size of 246 mm^3 (range = 230–268 mm^3). SEN461 was formulated in 0.5% w/v Methocel in MilliQ water and administered PO by oral gavage twice a day at 30 mg/kg for seven consecutive days in a total of 15 animals (n = 5 for each time point). Control animals (n = 5) were administered with the vehicle for the same time period. On treatment day 19, the mice were euthanized under inhalant anesthesia with isoflurane and tumor and blood samples were collected at three different time points (1–4–8 h, n = 5 animals for each time point) after last treatment and subjected to gene expression analysis and compound quantification. All mice were maintained in a conventional-specific-pathogen-free facility according to the NIH guidelines using an approved Animal Care and Use Committee protocol. […]

Data set [6] can be described thus: Body weight and intestinal histology of treated mice. The class given is in vivo, female Crl:CD-1 nude mice. The settings on record: 30 mg/kg twice a day for seven days. The protocol:
as §4

Data set [7] relates to Wnt transcriptional activity in DLD1 colorectal cancer cells. Kind of data set: TCF-Luciferase/TA-Renilla Wnt reporter assay in DLD1. The class given is cell-based. The settings on record: DLD1, transiently transfected.
Source text: as §2, §3

On to `COCC(=O)N1CCN(C(=O)C2CCC(Cn3c(=O)c4cc(OC)ccc4n(C)c3=O)CC2)CC1` (centres unmarked) [SEN461], for which the values for the IC50 (in data set [1]; in the data set with 143B osteosarcoma cells) were 0.3 µM and above 30 µM, respectively. In addition, in data set [2], the “c-MYC mRNA” value is on record as “significant down-modulation”. In addition, the Axin1 protein level entry in data set [3] was “Axin1 stabilization”. Besides, the “cytoplasmic β-catenin total level” value in data set [3] is “down-regulation of total level of cytoplasmic β-catenin”. In addition, the “cellular motility (two-dimensional scratch assay)” value in the data set on U2OS cells and in the data set with HT-1080 cells was “neither U2OS nor HT-1080 cells showed inhibition of motility” each time. In the data set with HUVEC cells, the tubule-formation activity result is recorded as “did not show any effect”. The “Myc mediated activation / basal activity of nucleolin reporter” value in [4] and in data set [5] was “did not affect” in each case. Further, the “antitumor activity (tumor growth)” value with HT-1080 xenograft tumor is recorded as “tumor stasis effect”. Further, in data set [6], the body weight result was “maintained their body weight with no significant changes”. In addition, in data set [6], the “histology of gastrointestinal tract” value was “absence of gross histological changes”. For the same compound, in data set [7], the “Wnt transcriptional activity (TCF-Luciferase/TA-Renilla)” value is “Concentration dependent inhibition of Wnt transcriptional activity”.
